Reference: paper PMC7481290, “Halogenation as a tool to tune antimicrobial activity of peptoids” (Scientific Reports, 2020)
≈ marks a conversion by molar mass, not a printed value. Non-standard residues stand in square brackets, D forms with d. Residues, ends and D or L forms follow the SMILES beside them. N(4-Br-benzyl)Gly = O=C(O)CNCc1ccc(Br)cc1; NBzl(4-I)Gly = O=C(O)CNCc1ccc(I)cc1; Nphe = O=C(O)CNCc1ccccc1; Nlys = NCCCCNCC(=O)O

Experiments:
[1] = test system: Methicillin-resistant S. aureus USA 300; assay type: cell-based, Staphylococcus aureus; conditions: USA 300, 18 h
Procedure, shortened: (§1)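 Broth microdilution per CLSI in MHB II, final inoculum 5 × 10^5 CFU/mL, with twofold peptoid dilutions. Incubation was 18 h at 37 °C in ambient air. MIC was taken as the lowest concentration without visible growth, from two experiments on different days in technical triplicate.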

S. aureus ATCC 25923 = assay type: cell-based, Staphylococcus aureus; conditions: for Minimal inhibitory concentration SA^a: ATCC 25923, 18 h
Procedure, shortened: as §1

S. aureus ATCC 29213 = assay type: cell-based, Staphylococcus aureus; conditions: ATCC 29213, 18 h
Procedure, shortened: as §1

[2] = test system: Methicillin-resistant S. epidermidis ATCC 51625; assay type: cell-based, Staphylococcus epidermidis; conditions: for Minimal inhibitory concentration MRSE^e: ATCC 51625, 18 h
Procedure, shortened: as §1

[3] = test system: Methicillin-resistant S. epidermidis ET-024; assay type: cell-based, Staphylococcus epidermidis; conditions: for Minimal inhibitory concentration MRSE^d: Methicillin-resistant ET-024, 18 h
Procedure, shortened: as §1

E. coli ATCC 25922 = assay type: cell-based, Escherichia coli; conditions: ATCC 25922, 18 h
Procedure, shortened: as §1

[4] = test system: P. aeruginosa PA01 (H103); assay type: cell-based, Pseudomonas aeruginosa; conditions: H103, 18 h
Procedure, shortened: as §1

[5] = test system: selected bacterial strains (S. aureus, S. epidermidis, E. coli, P. aeruginosa); assay type: cell-based; conditions: for MICs, range across strains: range matches Gram-positive strains of Table 1
Description: All 36 peptoids were tested against seven bacterial strains: five Gram-positive (Staphylococcus aureus ATCC 25923 and ATCC 29213, methicillin-resistant Staphylococcus aureus USA 300, methicillin-resistant Staphylococcus epidermidis ET-024 and ATCC 51625) and two Gram-negative (Escherichia coli ATCC 25922, Pseudomonas aeruginosa PA01) (Table 1).
Bacterial growth inhibition was determined by using broth microdilution according to the Clinical Laboratory Standards Institute[43]. The antibacterial activity of peptoids was tested against S. aureus ATCC 25923, ATCC29213, and methicillin resistant S. aureus USA 300, methicillin resistant S. epidermidis ATCC 51625, a biofilm producing methicillin resistant S. epidermidis ET-024[44], P. aeruginosa Pa01 (H103), and E. coli ATCC 25922. Bacteria, grown on agar plates for 18 h at 37 °C, were diluted to ∼1 × 10^8 CFU/mL in Mueller‐Hinton Broth II (MHB II). Twofold serial dilutions of peptoids in MHB II were inoculated with bacteria to achieve a final concentration of 5 × 10^5 CFU/mL in polypropylene 96 U‐well microtiter plates (Corning 3,897; ThermoFisher Scientific, Roskilde), followed by incubation at 37 °C in ambient air for 18 h. The MIC values were determined as the lowest concentration showing no visible bacterial growth. Experiments were performed twice (in technical triplicates) on 2 different days.

[6] = Critical aggregation concentration from SAXS fit analysis; assay type: physicochemical
Description: SAXS experiments of the 10-mer peptoids were performed at the automated BM29 bioSAXS beamline at the European Synchrotron Radiation Facility (ESRF) in Grenoble, France[45]. The data was obtained using an energy of 12.5 keV and a detector distance of 2.87 m, covering a q range ( q=4πsin(θ/2)/λ ), where θ is the scattering angle and λ is the X-ray wavelength) of about 0.0047 to 0.5 Å^−1. The data set was calibrated to an absolute intensity scale using water as a primary standard. 40 µL samples were run through a capillary using the flow mode of the automated sample changer. SAXS data was collected in ten successive frames of 0.5 s each to monitor radiation damage and the data reduction was done using the standard tool at BM29[47].
The SAXS experiments on the fully iodinated 6-, 8-, and 12-mers to determine the CAC of the compounds were performed using a Bruker NANOSTAR equipped with a microfocus X-ray source (IμS Cu, Incoatec, Germany) and a VÅNTEC-2000 detector. Raw scattering data was calibrated to absolute intensity scale using water as a primary standard and radially averaged in order to obtain the 1D scattered intensity profile as a function of the scattering vector, with a wavelength of 1.54 Å.
The modelling fit analysis of the scattering data is explained in detail in the supplementary information.

| Structure (SMILES) | Minimal inhibitory concentration MRSA^c [1] [µg/mL] | Minimal inhibitory concentration SA^a (S. aureus ATCC 25923) [µg/mL] | Minimal inhibitory concentration SA^b (S. aureus ATCC 29213) [µg/mL] | MIC against MRSE ([2]; text b15, strain not named, values match ATCC 51625) [µg/mL] | Minimal inhibitory concentration MRSE^d [3] [µg/mL] | Minimal inhibitory concentration EC^f (E. coli ATCC 25922) [µg/mL] | Minimal inhibitory concentration PA^g [4] [µg/mL] | antimicrobial potency against the selected bacterial strains, in words [5] | Minimal inhibitory concentration MRSE^e [2] [µg/mL] | critical aggregation concentration (CAC) [6] [mg/mL] | fold increase of activity against S. aureus (S. aureus ATCC 25923; versus non-halogenated control of same length) [fold] | fold increase of activity against MRSE ([3]; versus non-halogenated control of same length, values match ET-024) [fold] | MICs, range across strains [5] [µg/mL] |
| --- | --- | --- | --- | --- | --- | --- | --- | --- | --- | --- | --- | --- | --- |
| NCCCCNCC(=O)N(CC(=O)N(CCCCN)CC(=O)N(CC(=O)N(CCCCN)CC(=O)N(CC(N)=O)Cc1ccccc1)Cc1ccccc1)Cc1ccccc1 [Compound 1] (H-[Nlys][Nphe][Nlys][Nphe][Nlys][Nphe]-NH2) | > 512 | > 512 | > 512 | 512 (≈ 607 µM) | 512 (≈ 607 µM) | > 512 | > 512 | inactive | – | – | – | – | – |
| NCCCCNCC(=O)N(CC(=O)N(CCCCN)CC(=O)N(CC(=O)N(CCCCN)CC(=O)N(CC(=O)N(CCCCN)CC(=O)N(CC(N)=O)Cc1ccccc1)Cc1ccccc1)Cc1ccccc1)Cc1ccccc1 [Compound 10] (H-[Nlys][Nphe][Nlys][Nphe][Nlys][Nphe][Nlys][Nphe]-NH2) | > 512 | > 512 | > 512 | – | 256 (≈ 229 µM) | 256 (≈ 229 µM) | > 512 | inactive | 256 (≈ 229 µM) | – | – | – | – |
| NCCCCNCC(=O)N(CC(=O)N(CCCCN)CC(=O)N(CC(=O)N(CCCCN)CC(=O)N(CC(=O)N(CCCCN)CC(=O)N(CC(=O)N(CCCCN)CC(=O)N(CC(N)=O)Cc1ccccc1)Cc1ccccc1)Cc1ccccc1)Cc1ccccc1)Cc1ccccc1 [Compound 19] (H-[Nlys][Nphe][Nlys][Nphe][Nlys][Nphe][Nlys][Nphe][Nlys][Nphe]-NH2) | > 512 | > 512 | > 512 | – | 128 (≈ 91.8 µM) | 256 (≈ 184 µM) | 512 (≈ 367 µM) | inactive | 128 (≈ 91.8 µM) | > 5 | – | – | – |
| NCCCCNCC(=O)N(CC(=O)N(CCCCN)CC(=O)N(CC(=O)N(CCCCN)CC(=O)N(CC(=O)N(CCCCN)CC(=O)N(CC(=O)N(CCCCN)CC(=O)N(CC(N)=O)Cc1ccc(Br)cc1)Cc1ccc(Br)cc1)Cc1ccc(Br)cc1)Cc1ccc(Br)cc1)Cc1ccc(Br)cc1 [Compound 22] (H-[Nlys][N(4-Br-benzyl)Gly][Nlys][N(4-Br-benzyl)Gly][Nlys][N(4-Br-benzyl)Gly][Nlys][N(4-Br-benzyl)Gly][Nlys][N(4-Br-benzyl)Gly]-NH2) | 4 (≈ 2.24 µM) | 2 (≈ 1.12 µM) | 2 (≈ 1.12 µM) | – | 1 (≈ 0.559 µM) | 64 (≈ 35.8 µM) | > 512 | – | 1 (≈ 0.559 µM) | 2.3 | > 256 | 128 | 1 to 4 |
| NCCCCNCC(=O)N(CC(=O)N(CCCCN)CC(=O)N(CC(=O)N(CCCCN)CC(=O)N(CC(=O)N(CCCCN)CC(=O)N(CC(=O)N(CCCCN)CC(=O)N(CC(N)=O)Cc1ccc(I)cc1)Cc1ccc(I)cc1)Cc1ccc(I)cc1)Cc1ccc(I)cc1)Cc1ccc(I)cc1 [Compound 23] (H-[Nlys][NBzl(4-I)Gly][Nlys][NBzl(4-I)Gly][Nlys][NBzl(4-I)Gly][Nlys][NBzl(4-I)Gly][Nlys][NBzl(4-I)Gly]-NH2) | 16 (≈ 7.91 µM) | 32 (≈ 15.8 µM) | 32 (≈ 15.8 µM) | – | 4 (≈ 1.98 µM) | > 512 | > 512 | the activity was lost | 8 (≈ 3.95 µM) | 0.4 | – | – | – |
| NCCCCNCC(=O)N(CC(=O)N(CCCCN)CC(=O)N(CC(=O)N(CCCCN)CC(=O)N(CC(=O)N(CCCCN)CC(=O)N(CC(=O)N(CCCCN)CC(=O)N(CC(N)=O)Cc1ccc(Br)cc1)Cc1ccccc1)Cc1ccc(Br)cc1)Cc1ccccc1)Cc1ccc(Br)cc1 [Compound 26] (H-[Nlys][N(4-Br-benzyl)Gly][Nlys][Nphe][Nlys][N(4-Br-benzyl)Gly][Nlys][Nphe][Nlys][N(4-Br-benzyl)Gly]-NH2) | 8 (≈ 4.91 µM) | 4 (≈ 2.45 µM) | 4 (≈ 2.45 µM) | – | 1 (≈ 0.613 µM) | 256 (≈ 157 µM) | 512 (≈ 314 µM) | – | 1 (≈ 0.613 µM) | > 5 | – | – | 1 to 8 |
| NCCCCNCC(=O)N(CC(=O)N(CCCCN)CC(=O)N(CC(=O)N(CCCCN)CC(=O)N(CC(=O)N(CCCCN)CC(=O)N(CC(=O)N(CCCCN)CC(=O)N(CC(=O)N(CCCCN)CC(=O)N(CC(N)=O)Cc1ccccc1)Cc1ccccc1)Cc1ccccc1)Cc1ccccc1)Cc1ccccc1)Cc1ccccc1 [Compound 28] (H-[Nlys][Nphe][Nlys][Nphe][Nlys][Nphe][Nlys][Nphe][Nlys][Nphe][Nlys][Nphe]-NH2) | 512 (≈ 307 µM) | > 512 | 512 (≈ 307 µM) | – | 64 (≈ 38.3 µM) | 128 (≈ 76.7 µM) | 128 (≈ 76.7 µM) | inactive | 32 (≈ 19.2 µM) | – | – | – | – |
